Test results published in patent publication US7323496B2, “Compounds for treatment of inflammation, diabetes and related disorders” (Theracos, Inc., priority 1999, dated 2008).

How the values were obtained:
3T3-L1 adipocytes [1] = assay: Glucose uptake in 3T3-L1 differentiated adipocytes (14C-deoxyglucose); format: cell-based, mouse; settings: 48 hours with different concentrations, percentage of basal level, FIG. 1
3T3-L1 adipocytes [2] = assay: Insulin-stimulated glucose uptake in 3T3-L1 adipocytes; format: cell-based, mouse; settings: 5 μM, 48 hours, different concentrations of insulin, versus vehicle, FIG. 2
ob/ob mice [3] = assay: Glucose-lowering effect in ob/ob mice; format: in vivo, mouse; settings: 10 mg/kg daily oral, p<0.05
ob/ob mice [4] = assay: Lipid-lowering effects in ob/ob mice; format: in vivo, mouse; settings: 10 mg/kg daily oral, day 8, versus vehicle, p<0.05
TNF-alpha [5] = assay: Inhibition of LPS-induced TNF-alpha production in RAW264.7 cells (ELISA); format: cell-based, mouse; settings: RAW264.7, 10, 30 or 100 μM, LPS 0.1 μg/ml 6 hours; effect approached dexamethasone 1 μM, FIG. 5
IL-1 beta = assay: Inhibition of LPS-induced IL-1 beta production in RAW264.7 cells (ELISA); format: cell-based, mouse; settings: RAW264.7, 10, 30 or 100 μM, LPS 0.1 μg/ml 6 hours; same approximate magnitude as dexamethasone 1 μM, FIG. 6
IL-6 = assay: Inhibition of LPS-induced IL-6 production in RAW264.7 cells (ELISA); format: cell-based, mouse; settings: RAW264.7, 10, 30 or 100 μM, LPS 0.1 μg/ml 6 hours; greater than dexamethasone 1 μM, FIG. 7
iNOS = assay: Inhibition of LPS-induced iNOS production in RAW264.7 cells (Western blot); format: cell-based, mouse; settings: RAW264.7, 10, 30 or 100 μM, FIG. 8
COX-2 = assay: Inhibition of LPS-induced COX-2 production in RAW264.7 cells (Western blot); format: cell-based, mouse; settings: LPS-stimulated RAW264.7, 10, 30 or 100 μM, FIG. 8
COX-1 = COX-1 production in LPS-stimulated RAW264.7 cells (Western blot); format: cell-based, mouse; settings: LPS-stimulated RAW264.7, 10, 30 or 100 μM, FIG. 8
3T3-L1 adipocytes [6] = assay: Stimulation of glucose uptake in differentiated 3T3-L1 adipocytes with 100 nM insulin; format: cell-based; settings: Mus musculus, 48 h, vehicle set at 100%, read-out: Percent Stimulation of Glucose Uptake
PDE4 = assay: Inhibition of PDE4 enzyme activity; format: biochemical, human; settings: for Percent Inhibition of Enzyme Activity, PDE4: PDE4 from human U-937 cells, 1 μM cAMP
PDE3 = molecular target: T1, PDE3 (Homo sapiens, UniProt Q14432); assay: Inhibition of PDE3 enzyme activity; format: biochemical; settings: PDE3 from human platelets
T1 construct: PDE3 partially purified from human platelets were used; from tissue; host or cells: human platelets
T1 sequence (Q14432 whole entry): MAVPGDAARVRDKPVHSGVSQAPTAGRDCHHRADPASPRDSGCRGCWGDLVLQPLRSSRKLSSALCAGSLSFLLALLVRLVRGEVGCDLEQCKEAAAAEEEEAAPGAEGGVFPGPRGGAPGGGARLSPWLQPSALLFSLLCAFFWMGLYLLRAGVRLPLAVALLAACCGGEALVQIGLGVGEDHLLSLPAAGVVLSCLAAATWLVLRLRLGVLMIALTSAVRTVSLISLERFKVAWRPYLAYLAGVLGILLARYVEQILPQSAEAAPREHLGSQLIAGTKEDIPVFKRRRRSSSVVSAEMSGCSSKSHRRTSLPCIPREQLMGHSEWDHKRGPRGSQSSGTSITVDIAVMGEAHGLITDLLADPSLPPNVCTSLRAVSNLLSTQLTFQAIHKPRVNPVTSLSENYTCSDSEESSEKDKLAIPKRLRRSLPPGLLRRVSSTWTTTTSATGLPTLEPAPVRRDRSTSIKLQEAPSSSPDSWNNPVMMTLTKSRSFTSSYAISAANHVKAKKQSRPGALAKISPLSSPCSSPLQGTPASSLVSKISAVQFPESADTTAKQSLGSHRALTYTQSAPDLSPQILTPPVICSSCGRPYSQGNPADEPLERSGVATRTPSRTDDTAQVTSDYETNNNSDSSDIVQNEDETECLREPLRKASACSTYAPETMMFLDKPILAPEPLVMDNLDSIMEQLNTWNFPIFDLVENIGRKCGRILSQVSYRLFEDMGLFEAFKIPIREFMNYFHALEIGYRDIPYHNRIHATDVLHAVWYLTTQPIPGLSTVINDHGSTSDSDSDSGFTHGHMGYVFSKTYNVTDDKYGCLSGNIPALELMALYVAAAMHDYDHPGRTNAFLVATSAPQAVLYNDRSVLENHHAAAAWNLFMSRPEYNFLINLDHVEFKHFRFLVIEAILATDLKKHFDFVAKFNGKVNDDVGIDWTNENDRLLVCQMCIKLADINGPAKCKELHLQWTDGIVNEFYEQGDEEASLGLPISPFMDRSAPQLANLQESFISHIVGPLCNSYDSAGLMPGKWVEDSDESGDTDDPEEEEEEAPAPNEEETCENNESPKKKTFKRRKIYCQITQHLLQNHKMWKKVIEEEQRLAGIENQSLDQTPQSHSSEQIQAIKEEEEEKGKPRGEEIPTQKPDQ

p44/42 MAP kinase = assay: Inhibition of LPS-induced phosphorylation of p44/42 MAP kinase in RAW 264.7 gamma NO(-) cells (Western blot); format: cell-based, mouse; settings: data not shown
DBA/1J mice = assay: Collagen-induced arthritis in mice; format: in vivo, mouse; settings: for arthritis clinical score (severity) compared with vehicle controls: FIG. 9
TNF-alpha [7] = assay: Inhibition of LPS-induced TNF-alpha production in mice (plasma ELISA); format: in vivo, mouse; settings: summary in words of Table 6, 50 or 100 mg/kg oral
[8] = test system: human elutriated monocytes; assay: Cell viability of human monocytes (MTS/PMS assay); format: cell-based; settings: 30 μM
[9] = low dose 40 mg/kg oral twice daily for 14 days

Row | Compound | activity at 0.1 µM (3T3-L1 adipocytes [6]) [%] | activity at 1 µM (3T3-L1 adipocytes [6]) [%] | activity at 10 µM (3T3-L1 adipocytes [6]) [%] | further results
1 | COC(=O)C(=Cc1cc(OC)cc(OC)c1)c1ccc(Oc2ccc(CCC(=O)NC(N)=O)cc2)cc1 [Compound 1, 3-(3,5-dimethoxyphenyl)-2-{4-[4-(3-oxo-3-ureidopropyl)-phenoxy]-phenyl}-acrylyc acid methyl ester] |  |  |  | glucose uptake (3T3-L1 adipocytes [1]): dose-dependent increase; stimulation of glucose uptake by insulin (3T3-L1 adipocytes [2]): enhanced; decrease in blood glucose levels (ob/ob mice [3]; day 6, versus vehicle): 36%; decrease in blood glucose levels (ob/ob mice [3]; day 8, versus vehicle): 23%; decrease in free fatty acids (ob/ob mice [4]): 19%; decrease in serum triglycerides (ob/ob mice [4]): 49%; inhibition of LPS-induced production of TNF-alpha (TNF-alpha [5]): significantly inhibited; inhibition of LPS-induced production of IL-1 beta (IL-1 beta): significantly inhibited; inhibition of LPS-induced production of IL-6 (IL-6): significantly inhibited; inhibition of LPS-induced iNOS production (iNOS): dose-dependent inhibition; inhibition of production of COX-2 (COX-2): selectively inhibited; inhibition of production of COX-1 (COX-1): but not COX-1
2 | CCOC(=O)NC(=O)CCc1ccc(Oc2ccc(/C(=C\c3cc(OC)cc(OC)c3)C(=O)OC)cc2)cc1 [Compound 8, 3-(3,5-dimethoxyphenyl)-2-{4-[4-(3-ethoxycarbonylamino-3-oxo-propyl)-phenoxy]-phenyl}-acrylic acid methyl ester] | 115 | 132 | 171 | 
3 | COc1cc(/C=C(/C(=O)N(C)C)c2ccc(Oc3ccc(CCC(=O)NC(N)=O)cc3)cc2)cc(OC)c1 [Compound 13, 3-(3,5-dimethoxyphenyl)-N,N-dimethyl-2-{4-[4-(3-oxo-3-ureido-propyl)-phenoxy]-phenyl}-acrylamide] |  |  |  | Percent Inhibition of Enzyme Activity, PDE4 (PDE4; 1 μM): 85%; Percent Inhibition of Enzyme Activity, PDE4 (PDE4; 10 μM): 98%; Percent Inhibition of Enzyme Activity, PDE4 (PDE4; 30 μM): 102%; IC50 (PDE4; PDE4 from human U-937 promonocytic cells): < 1 µM; IC50 (PDE3): 13.6 µM; inhibition of LPS/IFN-gamma induced phosphorylation of p44/42 (p44/42 MAP kinase; 30 μM and 10 μM, LPS 10 ng/ml / IFN-gamma 10 U/ml 15 min): dose-dependent manner; inhibition of LPS-induced phosphorylation of p44/42 MAP kinase (p44/42 MAP kinase; 30 μM, LPS 10 ng/ml 15 min): inhibited
4 | COC(=O)NCc1ccc(Oc2ccc(/C(=C\c3cc(OC)cc(OC)c3)C(=O)N(C)C)cc2)cc1 [Compound 29, (4-{4-[2-(3,5-dimethoxyphenyl)-1-dimethylcarbamoyl-vinyl]-phenoxy}-benzyl)-carbamic acid methyl ester] | 106 | 124 | 120 | 
5 | COc1cc(/C=C(/C(=O)N(C)C)c2ccc(Oc3ccc(CCC(N)=O)cc3)cc2)cc(OC)c1 [Compound 31, 2-{4-[4-(2-Carbamoylethyl)-phenoxy]-phenyl}-3-(3,5-dimethoxyphenyl)-N,N-dimethylacrylamide] | 107 | 119 | 161 | hind limb histology (DBA/1J mice; high dose 100 mg/kg oral twice daily for 14 days): reduction in incidence and severity of pannus formation, inflammation cell infiltration and bone/cartilage damage; arthritis clinical score (severity) compared with vehicle controls (DBA/1J mice; high dose 100 mg/kg oral twice daily for 14 days, about same extent as dexamethasone): prevented the increase in severity; hind limb histology (DBA/1J mice; [9]): marked chronic inflammation of synovium with pannus formation and destruction of bone and cartilage; arthritis clinical score (severity) compared with vehicle controls (DBA/1J mice; [9]): no apparent effect; inhibition of LPS-induced TNF-alpha production in mice (TNF-alpha [7]): significantly inhibited
6 | COc1cc(/C=C(/C(=O)N(C)C)c2ccc(Oc3ccc(CCC(=O)N4CCOCC4)cc3)cc2)cc(OC)c1 [Compound 40, 3-(3,5-Dimethoxyphenyl)-N,N-dimethyl-2-{4-[4-(3-morpholin-4-yl-3-oxopropyl)-phenoxy]phenyl}-acrylamide] | 126 | 117 | 126 | 
7 | COc1cc(/C=C(/C(=O)N2CCCCC2)c2ccc(Oc3ccc(CCC(=O)NC(N)=O)cc3)cc2)cc(OC)c1 [Compound 51, [3-(4-{4-[2-(3,5-dimethoxyphenyl)-1-(piperidine-1-carbonyl)-vinyl]-phenoxy}-phenyl)-propionyl]-urea] | 93 | 107 | 136 | Cell viability [8]: * (Cell viability <70%)
8 | CC(=O)NC(=O)CCc1ccc(Oc2ccc(/C(=C\c3ccc(F)cc3)C(=O)N(C)C)cc2)cc1 [Compound 56, 2-{4-[4-(3-acetylamino-3-oxopropyl)-phenoxy]-phenyl}-3-(4-fluorophenyl)-N,N-dimethylacrylamide] | 83 | 100 | 126 | 
9 | COc1cc(/C=C(/C(=O)Nc2ccncc2)c2ccc(Oc3ccc(CCC(=O)NC(N)=O)cc3)cc2)cc(OC)c1 [Compound 60, 3-(3,5-dimethoxyphenyl)-2-{4-[4-(3-oxo-3-ureidopropyl)-phenoxy]-phenyl}-N-pyridin-4-ylacrylamide] | 93 | 120 | 229 | 
10 | COc1cc(/C=C(/C(=O)Nc2ccc(Cl)cc2)c2ccc(Oc3ccc(CCC(=O)NC(N)=O)cc3)cc2)cc(OC)c1 [Compound 61, N-(4-chlorophenyl)-3-(3,5-dimethoxyphenyl)-2-{4-[4-(3-oxo-3-ureidopropyl)-phenoxy]-phenyl}-acrylamide] | 93 | 120 | 229 | 
11 | COc1cc(/C=C(/C(=O)N(C)C)c2ccc(Oc3ccc(CCC(=O)NCC(=O)N4CCOCC4)cc3)cc2)cc(OC)c1 [Compound 63, 3-(3,5-Dimethoxyphenyl)-N,N-dimethyl-2-(4-{4-[2-(2-morpholin-4-yl-2-oxoethylcarbamoyl)-ethyl]-phenoxy}-phenyl)-acrylamide] | 107 | 112 | 139 | 
12 | COc1cc(/C=C(/C(=O)N(C)C)c2ccc(Oc3ccc(CCC(=O)N4CCN(C)CC4)cc3)cc2)cc(OC)c1 [Compound 64, 3-(3,5-dimethoxyphenyl)-N,N-dimethyl-2-(4-{4-[3-(4-methylpiperazin-1-yl)-3-oxopropyl]-phenoxy}-phenyl)-acrylamide] | 108 | 113 | 127 | 
13 | CN(C)C(=O)/C(=C/c1cccnc1)c1ccc(Oc2ccc(CCC(N)=O)cc2)cc1 [Compound 77, 2-{4-[4-(2-carbamoyl-ethyl)-phenoxy]-phenyl}-N,N-dimethyl-3-pyridin-3-yl-acrylamide] |  |  |  | inhibition of LPS-induced TNF-alpha production in mice (TNF-alpha [7]): significantly inhibited
